Assay results taken from US11998017B2, “Bio-pesticide for Japanese beetles” (priority 2022, dated 2024).

Test system: Japanese beetle
Assay: neurological response / paralysis of Japanese beetle after consuming or absorbing quisqualic acid
Assay type: in vivo, Popillia Japonica
From the text: The pesticide composition according to one or more embodiments described herein makes use of a phenomenon that is unique to the Japanese beetle. A primary active ingredient of the pesticide is the amino acid quisqualic acid, which elicits a unique neurological response specifically from the Japanese beetle. Quisqualic acid is naturally occurring in the Pelargonium and Quisqualic indica species of plants. As part of this disclosure, it was discovered that ingestion of the plants' essential oil is not required, but that the absorption of the plants' essential oil through contact by the Japanese beetle, can provoke a sufficient neurological response from the beetle, followed by 24-hour paralysis of the Japanese beetle. That is, the Japanese beetle need not consume the composition according to one or more embodiments herein. The composition is an effective pesticide through contact only by the Japanese beetle.
Japanese beetles that do land on the leaves, become saturated with the oil and absorb the paralysis-inducing quisqualic acid. Japanese beetles that do feed on the foliage may then also consume the quisqualic acid. […]

N[C@@H](Cn1oc(=O)[nH]c1=O)C(=O)O [quisqualic acid]
duration of paralytic state (after consumption or absorption through contact): 24 h | time until beetles fall into paralytic state (beetles that consume or absorb the quisqualic acid): 4 to 6 h
